The values that follow are results of earlier work, collected in patent US5707620A (priority 1995, dated 1998).

This data set deals with hemagglutinins. The note with it: cited from earlier work.

As for `NCCCC[C@H](N)C(=O)O` [lysine], the “inhibition of activity of hemagglutinins” value was “to a lesser extent, lysine”.

Regarding `N=C(N)NCCC[C@H](N)C(=O)O` [arginine], the “inhibition of activity of hemagglutinins” value is given as “inhibited by arginine”.
